Series [1] concerns Staphylococcus aureus. Put plainly: Antibacterial activity against methicillin-resistant Staphylococcus aureus ATCC 18466 assessed as reduction in bacterial growth incubated for 24 hrs by serial dilution method. The class given is functional. Particulars: ATCC 18466, 24 h, read-out: MIC.
The next series has as its system Streptococcus mutans. Put plainly: Antibacterial activity against Streptococcus mutans UA159 assessed as reduction in bacterial growth incubated for 24 hrs by serial dilution method. It is filed as functional. The settings on record: UA159, 24 h.
Series [2] in a line: Hemolytic activity in mouse Erythrocyte at 640 ug/ml incubated for 1 hr relative to control. The settings on record: mouse erythrocytes, read-out: %max. It is filed as ADME, cell-based.
Another series deals with Erythrocyte. In words: Hemolytic activity in mouse Erythrocyte assessed as HC10 incubated for 1 hr. The class given is ADME, cell-based.
The test system of a further series is Candida albicans. Put plainly: Antifungal activity against Candida albicans ATCC 5314 assessed as reduction in fungal growth incubated for 24 hrs by serial dilution method. It is filed as functional. Particulars: ATCC 5314, 24 h.
Series [3] is described as follows: Hemolytic activity in mouse Erythrocyte assessed as HC50 incubated for 1 hr. Particulars: mouse erythrocytes. It is filed as ADME, cell-based.
For a further series, the system named is Streptococcus sanguinis. In words: Antibacterial activity against Streptococcus sanguinis ATCC 10556 assessed as reduction in bacterial growth incubated for 24 hrs by serial dilution method. Particulars: ATCC 10556, 24 h. It is filed as functional.
Series [4] is described as follows: Cytotoxicity against human HEK293T cells assessed as cell viability at 5 to 640 ug/ml incubated for 48 hrs by MTT assay relative to control. The class given is cell-based, HEK-293T. The settings on record: read-out: Activity.
In series [5] the test system is Staphylococcus aureus. Put plainly: Antibacterial activity against Staphylococcus aureus ATCC 25923 assessed as reduction in bacterial growth incubated for 24 hrs by serial dilution method. The class given is functional. The settings on record: ATCC 25923, 24 h.
Series [6] in a line: Cytotoxicity against human HEK293T cells assessed as cell viability at 640 ug/ml incubated for 48 hrs by MTT assay relative to control. The class given is cell-based, HEK-293T. Particulars: read-out: Activity. In general terms: Tetrazolium dyes change colour on reduction, which living cells bring about.

Converted amounts (≈) assume the structure as drawn.

As to H-YIRKINRHFKTLKKNLKK-NH2, the minimum inhibitory concentration (MIC) (in general, the least concentration at which growth counts as inhibited) is < 64 µg/mL in the series on Staphylococcus aureus [1]; > 64 µg/mL in the series on Streptococcus mutans; < 64 µg/mL in the series with Candida albicans (read-out: MIC); < 64 µg/mL in the series with Streptococcus sanguinis (read-out: MIC); < 64 µg/mL in the series with Staphylococcus aureus [5] (read-out: MIC). In addition, the hemolysis at 1 h, 640 ug/ml in [2] was 8.07%. The HC10 in the series on Erythrocyte was > 640 µg/mL. For the same compound, the HC50 (as a rule, the concentration that lyses half of the red blood cells) at 1 h in [3] is > 640 µg/mL. Moreover, in series [4], the viability at 48 h fell in the range of 70 to 80%.
Consider H-YFRTIRRFFKKLFKTLKK-NH2, for which the MIC is 64 µg/mL with Staphylococcus aureus [1]; < 64 µg/mL in the series on Streptococcus mutans (read-out: MIC); 64 µg/mL in the series with Candida albicans (read-out: MIC); < 64 µg/mL with Streptococcus sanguinis (read-out: MIC); 64 µg/mL in the series with Staphylococcus aureus [5] (read-out: MIC). Also, the hemolysis at 1 h, 640 ug/ml in series [2] amounted to 10.3%. Moreover, the HC10 in the series on Erythrocyte is 640 µg/mL. Moreover, in series [3], the HC50 at 1 h was > 640 µg/mL. For the same compound, the viability at 48 h in [4] was 70 to 80%.
As to H-WVRKVRRWWKKVKKVVKK-NH2, the MIC in the series with Staphylococcus aureus [1], with Streptococcus mutans (read-out: MIC), with Candida albicans (read-out: MIC), with Streptococcus sanguinis (read-out: MIC) and in the series with Staphylococcus aureus [5] (read-out: MIC) was < 64 µg/mL each time. Besides, the hemolysis at 1 h, 640 ug/ml in series [2] worked out at 25.5%. For the same compound, the HC10 with Erythrocyte is 80.04 µg/mL. Besides, the viability at 48 h, 640 ug/ml in [6] was 65.7%. Also, in series [3], the HC50 at 1 h was > 640 µg/mL.
Consider `CN[C@H](CC(C)C)C(=O)N[C@H]1C(=O)N[C@@H](CC(N)=O)C(=O)N[C@H]2C(=O)N[C@H]3C(=O)N[C@H](C(=O)N[C@H](C(=O)O)c4cc(O)cc(O)c4-c4cc3ccc4O)[C@H](O)c3ccc(c(Cl)c3)Oc3cc2cc(c3O[C@@H]2O[C@H](CO)[C@@H](O)[C@H](O)[C@H]2O[C@H]2C[C@](C)(N)[C@H](O)[C@H](C)O2)Oc2ccc(cc2Cl)[C@H]1O` [VANCOMYCIN], for which the figures for the MIC with Streptococcus mutans (read-out: MIC) and with Streptococcus sanguinis (read-out: MIC) were 2 µg/mL (≈ 1.38 µM) and 1 µg/mL (≈ 0.69 µM), respectively.
Regarding H-YIRKIRRFFKKRFKFRKK-NH2, the MIC with Staphylococcus aureus [1] was found to be 32 µg/mL; with Streptococcus mutans (read-out: MIC), 16 µg/mL; with Candida albicans (read-out: MIC), 32 µg/mL; with Streptococcus sanguinis (read-out: MIC), 64 µg/mL; with Staphylococcus aureus [5] (read-out: MIC), 64 µg/mL. In series [2], the hemolysis at 1 h, 640 ug/ml turned out to be 8.21%. Also, the HC10 in the series on Erythrocyte is > 640 µg/mL. In addition, in series [3], the HC50 at 1 h was > 640 µg/mL. Moreover, in series [4], the viability at 48 h is 70 to 80%.
For the compound H-YIRKIRRFFKTLNKNLKK-NH2, the MIC in the series with Staphylococcus aureus [1] was < 64 µg/mL; in the series on Streptococcus mutans (read-out: MIC) it was 32 µg/mL; with Candida albicans (read-out: MIC) it was < 64 µg/mL; with Streptococcus sanguinis (read-out: MIC), < 64 µg/mL; in the series on Staphylococcus aureus [5] it was > 64 µg/mL. Besides, the hemolysis at 1 h, 640 ug/ml in series [2] was 7.17%. Further, the HC10 with Erythrocyte is > 640 µg/mL. In addition, in series [3], the HC50 at 1 h was > 640 µg/mL. The viability at 48 h in series [4] lay within 70 to 80%.
Take H-LYKRYILRKFKFLKKKLKKK-NH2: the MIC in the series with Staphylococcus aureus [1] was 64 µg/mL; with Streptococcus mutans, > 64 µg/mL; in the series with Candida albicans, > 64 µg/mL; with Streptococcus sanguinis, > 64 µg/mL; with Staphylococcus aureus [5] (read-out: MIC) it was < 64 µg/mL. Further, in series [2], the hemolysis at 1 h, 640 ug/ml was determined as 9.34%. In addition, in the series with Erythrocyte, the HC10 is > 640 µg/mL. Moreover, the HC50 at 1 h in series [3] is > 640 µg/mL. In series [4], the viability at 48 h lay in the range of 70 to 80%.

Source of the values: ChEMBL document CHEMBL4311960, “Two optimized antimicrobial peptides with therapeutic potential for clinical antibiotic-resistant Staphylococcus aureus” (Eur J Med Chem, 2019).
